US20220305121A1, “N-ARYL SULFONAMIDE DERIVATIVES AS VACCINE ADJUVANT” (The Regents of the University of California, priority 2019, published 2022)
Entries after “also recorded” stand apart in the source; their conditions may differ.

Legend:
Assay type in all cases: cell-based
[1] = tested on: ISRE; assay: Measurement of ISRE activity in ISRE-bla THP-1 cells (FRET, IFN-α as primary stimulus); settings: for activity at 5 µM / EC50: Homo sapiens, THP-1; for activity at 5 µM / ISRE % Activation: compound 5 μM + IFN-α 100 U/mL, 16 hours, two point normalized: compound 1 + IFN-α = 200%, IFN-α = 100%, mean; for activity at 5 µM: read-out: ISRE % Activation; for EC50: dose response in the presence of IFN-α; for ISRE activity (in words): with IFN-α
Summary of the method: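 Cells at 5×10^4/well in RPMI with 10% dialyzed FBS, treated with compound at 5 μM (0.05% DMSO) plus IFN-α at 100 U/mL (final) for 16 h. CCF4-AM substrate added for 3 h at room temperature. Background-subtracted 465/535 nm emission ratio, 2-point normalized: IFN-α alone 100%, compound 1+IFN-α 200%.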

[2] = tested on: THP-1 cells; assay: Cell viability assay (MTT); settings: compound 5 μM, 18 hours incubation; normalized to DMSO as 100%; mean
Summary of the method: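 Cells at 10^5/well in RPMI with 10% FBS were exposed to compound at 5 μM final (0.05% DMSO) for 18 h. MTT (0.5 mg/mL) then added for 4-6 h, cells lysed overnight in SDS/HCl, absorbance read at 570 nm against 650 nm reference.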

[3] = tested on: NF-κB; assay: Measurement of NF-κB activation using THP1-Blue NF-κB cells (SEAP reporter, LPS as primary stimulus); settings: for activity at 5 µM / NF-κB % Activation: compound 5 μM + LPS, 20 hour incubation, two point normalized: compound 1 + LPS = 200%, LPS = 100%, mean; for EC50: dose response in the presence of LPS; for NF-κB activity (in words): with LPS
Summary of the method: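 THP1-Blue NF-κB cells (10^5/well, RPMI + 10% FBS) were co-treated with LPS 10 μg/mL and compound 5 μM (final, […]) for 20 h. Supernatant SEAP was read by QuantiBlue colorimetry at 630 nm. Two-point normalization set LPS alone to 100% and compound 1+LPS to 200%.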

[4] = tested on: NF-κB and ISRE; assay: NF-κB and ISRE reporter assays (primary screens), statements in words for both assays; settings: with LPS or IFN-α as primary stimulus, compared to compound 1
Method: THP1-Blue™ NF-κB cells were plated in 96-well plates at 10^5 cells/well in 100 μl RPMI supplemented with 10% fetal bovine serum (FBS, Omega Scientific, Inc., Tarzana, Calif.), 100 U/mL penicillin, 100 μg/ml streptomycin (Thermo Fisher Scientific) and Normocin (Invivogen). LPS was prepared in assay medium at a concentration of 20 μg/mL. Tested compounds were dissolved in DMSO at 1 mM as a stock solution and were further diluted in the LPS solution to a final concentration of 10 μM. 100 μL of this solution was then transferred to the plated cells to obtain a final concentration of LPS at 10 μg/mL and compound at 5 μM ([…]). The culture supernatants were harvested after a 20 hour incubation period, SEAP activity in the culture supernatants was determined by a colorimetric assay using QuantiBlue (Invivogen). Plate absorbance was read at 630 nm using a Tecan Infinite M200 plate reader (Männedorf, Switzerland). The SEAP concentration was directly proportional to NF-κB activity, which was 2-point normalized to yield activity of compound 1+LPS as 200% and activity for LPS as 100%.
ISRE-bla THP-1 cells were plated in 96-well plates at 5×10^4 cells/well in 50 μl RPMI supplemented with 10% dialyzed FBS (Atlanta Biologicals, Inc., GA), 0.1 mM nonessential amino acids, 1 mM sodium pyruvate, 100 U/mL penicillin and 100 μg/ml streptomycin. Type I IFN-α (R&D Systems, #11200-2) solution was prepared in assay medium at a concentration of 200 U/mL Tested compounds were dissolved in DMSO at 1 mM and were further diluted in the IFN-α solution to a final concentration of 10 μM. 50 μL of this solution was then transferred to the plated cells to obtain a final concentration of IFN-α at 100 U/mL and compound at 5 μM ([…]), The cells were incubated for 16 hours, after which 20 μL of 6×LiveBLAzer™ FRET B/G Substrate (CCF4-AM) mixture (prepared according to the manufacturer's instructions) was added to each well, Plates were incubated at room temperature in the dark for 3 hours. Fluorescence was measured on a Tecan Infinite M200 plate reader at an excitation wavelength of 405 nm, and emission wavelengths of 465 nm and 535 nm. Background values (cell free wells at the same fluorescence wavelength) were subtracted from the raw fluorescence intensity values and the emission ratios were calculated as the ratio of background subtracted fluorescence intensities at 465 nm to background subtracted fluorescence intensities at 535 nm. The ISRE activity values for these compounds were 2-point normalized to yield activity of compound 1+IFN-α as 200% and activity for IFN-α as 100%.
Measurement of NF-κB Activation Using THP1-Blue NF-κB Cells. THP1-Blue NF-κB cells were plated in 96-well plates at 10^5 cells/well in 100 μL of RPMI supplemented with 10% fetal bovine serum (FBS, Omega Scientific, Inc., Tarzana, Calif.), 100 U/mL penicillin, 100 μg/mL streptomycin (Thermo Fisher Scientific), and Normocin (Invivogen). LPS was prepared in assay medium at a concentration of 20 μg/mL. Tested compounds were dissolved in DMSO at 1 mM as a stock solution and were further diluted in the LPS solution to a final concentration of 10 μM. 100 μL of this solution was then transferred to the plated cells to obtain a final concentration of LPS at 10 μg/mL and compound at 5 μM ([…]). The culture supernatants were harvested after a 20 hours incubation period. SEAP activity in the culture supernatants was determined by a colorimetric assay using QuantiBlue (Invivogen). Plate absorbance was read at 630 nm using a Tecan Infinite M200 plate reader (Mannedorf, Switzerland). The SEAP concentration was directly proportional to NF-κB activity, which was two-point normalized to yield activity of compound 1+LPS as 200% and activity for LPS as 100%.
Measurement of ISRE Activity in ISRE-bla THP-1 Cells. […]

Row | Compound | activity at 5 µM [1] | EC50 [1] | MTT % Viability [2] | activity at 5 µM [3] | EC50 [3] | activity in NF-κB and ISRE assays (in words) ([4]; hydrochloride) | ISRE % Activation [1] | NF-κB % Activation [3] | activity in NF-κB and ISRE assays (in words) [4] | ISRE activity (in words) [1] | NF-κB activity (in words) [3]
1 | CCOc1ccc(S(=O)(=O)N(CCCN)c2cc(OC)c(Cl)cc2OC)cc1.Cl [Compound 55, N-(3-aminopropyl)-N-(4-chloro-2,5-dimethoxyphenyl)-4-ethoxybenzenesulfonamide hydrochloride] | 182% | 3.04 µM | 71.0% | 189% | 3.32 µM | recovered; also recorded: less potent than compound 1; also recorded: retained activity even though slightly attenuated |  |  |  |  | 
2 | N-(9-(2-carboxy-44(34(N-(4-chloro-2,5-dimethoxyphenyl)-4-ethoxyphenyl)sulfonamido)propyl)carbamoyl)phenyl)-6-(diethylamino)-3H-xanthen-3-ylidene)-N-ethylethanaminium [Compound 57] |  |  | 76.9% |  |  |  | 123% | 111% | reduced activity compared to compound 1 |  | 
3 | CCOc1ccc(S(=O)(=O)Nc2cc(OC)ccc2OC)cc1 [Compound 6, N-(2,5-dimethoxyphenyl)-4-ethoxybenzenesulfonamide] | 96% |  | 73.1% | 116% |  |  |  |  | retained activity |  | 
4 | C#CCOc1ccc(S(=O)(=O)Nc2cc(OC)c(Cl)cc2OC)cc1 [Compound 15, N-(4-chloro-2,5-dimethoxyphenyl)-4-(prop-2-yn-1-yloxy) benzenesulfonamide] |  |  | 80.9% |  |  |  | 99% | 97% | inactive |  | 
5 | COc1cc(NS(=O)(=O)c2ccc(Oc3ccccc3)cc2)c(OC)cc1Cl [Compound 22, N-(4-chloro-2,5-dimethoxyphenyl)-4-phenoxybenzenesulfonamide] | 95% |  | 91.3% | 98% |  |  |  |  | inactive |  | 
6 | CCOc1ccc(S(=O)(=O)Nc2ccc(Cl)c(OC)c2)cc1 [Compound 4, N-(4-chloro-3-methoxyphenyl)-4-ethoxybenzenesulfonamide] | 99% |  | 83.7% | 126% |  |  |  |  | complete loss of activity; also recorded: significant loss of activity |  | 
7 | COc1ccc(S(=O)(=O)Nc2cc(OC)c(Cl)cc2OC)cc1 [Compound 12, N-(4-chloro-2,5-dimethoxyphenyl)-4-methoxybenzenesulfonamide] | 219% | 1.4 µM | 69.6% | 226% | 1.85 µM |  |  |  | tolerated; also recorded: retained activity |  | 
8 | CCOc1ccc(S(=O)(=O)N(CCCNC(=O)OC(C)(C)C)c2cc(OC)c(Cl)cc2OC)cc1 [Compound 52, tert-Butyl (3-((N-(4-Chloro-2,5-dimethoxyphenyl)-4-ethoxyphenyl)sulfonamido)propyl)carbamate] |  |  | 75.6% |  |  |  | 140% | 134% | reduction in activity |  | 
9 | CCOC(=O)CN(c1cc(OC)c(Cl)cc1OC)S(=O)(=O)c1ccc(OCC)cc1 [Compound 49, Ethyl N-(4-chloro-2,5-dimethoxyphenyl)-N-((4-ethoxyphenyl)sulfonyl)glycinate] | 184% |  | 81.4% | 202% |  |  |  |  | retained dual NF-κB and ISRE activities |  | 
10 | CCOC(=O)c1ccc(S(=O)(=O)Nc2cc(OC)c(Cl)cc2OC)cc1 [Compound 29, Ethyl 4-(N-(4-chloro-2,5-dimethoxyphenyl)sulfamoyl)benzoate] | 169% |  | 70.8% | 189% |  |  |  |  | retained partial activity |  | 
11 | CCNC(=O)CCCN(c1cc(OC)c(Cl)cc1OC)S(=O)(=O)c1ccc(OCC)cc1 [Compound 54, 4-((N-(4-chloro-2,5-dimethoxyphenyl)-4-ethoxyphenyl)sulfonamido)-N-ethylbutanamide] |  |  | 78.2% |  |  |  | 137% | 206% | retained activity | reduction in ISRE activity | retaining the NF-κB activity
12 | CCCOc1ccc(S(=O)(=O)Nc2cc(OC)c(Cl)cc2OC)cc1 [Compound 13, N-(4-chloro-2,5-dimethoxyphenyl)-4-propoxybenzenesulfonamide] | 125% |  | 71.3% | 149% |  |  |  |  | weakly active; also recorded: retained activity |  | 
13 | COc1cccc(S(=O)(=O)Nc2cc(OC)c(Cl)cc2OC)c1 [Compound 23, N-(4-chloro-2,5-dimethoxyphenyl)-3-methoxybenzenesulfonamide] | 104% |  | 79.6% | 116% |  |  |  |  | none of these molecules were active |  | 
14 | CCOc1ccc(S(=O)(=O)N(c2cc(OC)c(Cl)cc2OC)C(C)C)cc1 [Compound 40, N-(4-chloro-2,5-dimethoxyphenyl)-4-ethoxy-N-isopropylbenzenesulfonamide] | 169% |  | 103.2% | 76% |  |  |  |  | inactive | retaining ISRE activity | eliminated the NF-κB activity; also recorded: loss of NF-κB activity
15 | CCOc1ccc(S(=O)(=O)N(Cc2ccccc2)c2cc(OC)c(Cl)cc2OC)cc1 [Compound 46, N-benzyl-N-(4-chloro-2,5-dimethoxyphenyl)-4-ethoxybenzenesulfonamide] | 159% |  | 71.7% | 181% |  |  |  |  | potent analogs |  | 
